These results are taken from ChEMBL document CHEMBL1146232, “Discovery of N-{(1S,2S)-2-(3-cyanophenyl)- 3-[4-(2-[18F]fluoroethoxy)phenyl]-1-methylpropyl}- 2-methyl-2-[(5-methylpyridin-2-yl)oxy]propanamide, a cannabinoid-1 receptor positron emission tomography tracer suitable for clinical use” (J Med Chem, 2007).

In data set [1] the target is Cannabinoid receptor 1 (Homo sapiens, UniProt P21554). Put plainly: Displacement of [3H]CP-55940 from human recombinant CB1R expressed in CHO cells. It is filed as cell-based.
The nature of data set [2]: Distribution coefficient, log D at pH 7.3. The conditions noted are these: octanol/water. The class given is physicochemical.
Data set [3] is described as follows: Ratio of drug level in brain to plasma in Sprague-Dawley rat at 1 mg/kg, iv after 15 mins. The class given is ADME, organism-based. The conditions noted are these: brain and plasma. Details: dose 1 mg/kg, route intravenous.
The nature of data set [4]: Half life in Sprague-Dawley rat at 1 mg/kg, iv. The class given is ADME, organism-based. Details: dose 1 mg/kg, route intravenous. The conditions noted are these: in vivo.
The target of data set [5] is Cannabinoid receptor 2 (Homo sapiens, UniProt P34972). Put plainly: Agonist activity at human CB2R. It is filed as functional.
A short description of data set [6]: Clearance in Sprague-Dawley rat at 1 mg/kg, iv. The class given is ADME, organism-based. Details: dose 1 mg/kg, route intravenous. The conditions noted are these: in vivo.

Chain of Cannabinoid receptor 1 (P21554 whole entry): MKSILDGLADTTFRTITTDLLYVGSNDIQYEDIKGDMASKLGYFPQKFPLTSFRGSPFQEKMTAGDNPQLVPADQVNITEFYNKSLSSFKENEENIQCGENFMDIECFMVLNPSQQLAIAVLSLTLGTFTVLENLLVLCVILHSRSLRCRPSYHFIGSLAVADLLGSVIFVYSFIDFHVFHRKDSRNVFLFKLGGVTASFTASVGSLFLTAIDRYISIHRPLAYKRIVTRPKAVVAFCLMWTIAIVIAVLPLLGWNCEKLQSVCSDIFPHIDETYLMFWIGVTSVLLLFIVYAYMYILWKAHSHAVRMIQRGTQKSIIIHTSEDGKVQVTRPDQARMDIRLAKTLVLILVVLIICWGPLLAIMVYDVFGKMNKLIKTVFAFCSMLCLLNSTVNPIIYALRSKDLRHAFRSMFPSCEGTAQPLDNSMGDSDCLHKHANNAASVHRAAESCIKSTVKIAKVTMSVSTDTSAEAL
Chain of Cannabinoid receptor 2 (P34972 whole entry): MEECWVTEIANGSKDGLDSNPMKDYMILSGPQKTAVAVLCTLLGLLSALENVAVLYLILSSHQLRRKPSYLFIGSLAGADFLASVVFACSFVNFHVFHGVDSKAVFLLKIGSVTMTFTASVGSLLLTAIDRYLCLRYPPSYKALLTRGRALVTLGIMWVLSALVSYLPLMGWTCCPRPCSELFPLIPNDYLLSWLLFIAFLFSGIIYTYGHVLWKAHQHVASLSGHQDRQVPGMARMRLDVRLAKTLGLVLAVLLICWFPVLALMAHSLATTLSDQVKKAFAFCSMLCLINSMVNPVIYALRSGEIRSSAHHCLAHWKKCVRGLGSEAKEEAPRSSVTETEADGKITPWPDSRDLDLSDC

As for `C[C@H](NC(=O)C(C)(C)Oc1ccc(C(F)(F)F)cn1)[C@@H](Cc1ccc(OCCF)cc1)c1cccc(C#N)c1`, in data set [1], the IC50 came out at 0.9 nM. The molecule also had a logD in data set [2] of 4.4.

Take `C[C@H](NC(=O)C(C)(C)Oc1ccc(Cl)cn1)[C@@H](Cc1ccc(OCCF)cc1)c1cccc(C#N)c1`: the IC50 in data set [1] was found to be 0.8 nM. In data set [2], this molecule had a logD of 4.2.

As for `Cc1ccnc(OC(C)(C)C(=O)N[C@@H](C)[C@@H](Cc2ccc(OCCF)cc2)c2cccc(C#N)c2)c1`, the IC50 in data set [1] amounted to 0.47 nM. Also, the logD in data set [2] came to 4.1.

As for `Cc1ccc(OC(C)(C)C(=O)N[C@@H](C)[C@@H](Cc2ccc(OCCF)cc2)c2cccc(C#N)c2)nc1`, the Kp at 0.25 h in data set [3] stood at 0.5. Further, the half-life in data set [4] was 1.4 h. In addition, the IC50 was found to be 0.7 nM in data set [1] and 44 nM in data set [5]. This molecule displayed a clearance in data set [6] of 81 mL/min/kg. This molecule yielded a logD in data set [2] of 4.

Turning to `C[C@H](NC(=O)C(C)(C)Oc1cc(C(F)(F)F)ncn1)[C@@H](Cc1ccc(OCCF)cc1)c1cccc(C#N)c1`, in data set [1], the IC50 turned out to be 1.8 nM. Moreover, in data set [2], the logD was found to be 3.9.

For the molecule `Cc1ccc(OC(C)(C)C(=O)N[C@@H](C)[C@@H](Cc2ccc(OCC[18F])cc2)c2cccc(C#N)c2)nc1`, in data set [1], the IC50 was determined as 0.73 nM. Also, the logD in data set [2] is 4.

As for `COc1ccc(C[C@@H](c2cc(F)cc(C#N)c2)[C@H](C)NC(=O)C(C)(C)Oc2ccc(C(F)(F)F)cn2)cc1`, the IC50 in data set [1] came out at 0.9 nM. Further, the logD in data set [2] stood at 4.8.

Turning to `C[C@H](NC(=O)C(C)(C)Oc1ccc(C(F)(F)F)cn1)[C@@H](Cc1ccc(OCF)cc1)c1cc(F)cc(C#N)c1`, the IC50 in data set [1] was 2 nM. In data set [2], this molecule displayed a logD of 4.7.

Turning to `C[C@H](NC(=O)C(C)(C)Oc1ccccn1)[C@@H](Cc1ccc(OCCF)cc1)c1cccc(C#N)c1`, the IC50 in data set [1] stood at 1.3 nM. In data set [2], this molecule gave a logD of 3.7.

In the case of `C[C@H](NC(=O)C(C)(C)Oc1ccc(C(F)(F)F)cn1)[C@@H](Cc1ccc(OCCF)cc1)c1cc(F)cc(C#N)c1`, the IC50 in data set [1] worked out at 0.9 nM. The logD in data set [2] is 4.6.

Regarding `C[C@H](NC(=O)C(C)(C)Oc1cc(C(F)(F)F)ccn1)[C@@H](Cc1ccc(OCCF)cc1)c1cccc(C#N)c1`, the IC50 in data set [1] stood at 0.77 nM. In data set [2], this molecule returned a logD of 4.6.

Turning to `C[C@H](NC(=O)C(C)(C)Oc1ccc(C#N)cn1)[C@@H](Cc1ccc(OCCF)cc1)c1cccc(C#N)c1`, in data set [1], the IC50 stood at 1.8 nM. In addition, the logD in data set [2] came to 3.3.

In data set [2], `C[C@H](NC(=O)C(C)(C)Oc1ccc(C(F)(F)F)cn1)[C@@H](Cc1ccc(Cl)cc1)c1cccc(C#N)c1` [TARANABANT] gave a logD of 5.2.
